# In US12674058B2, “Compound, photosensitive resin composition comprising same, photosensitive resin film, color filter and CMOS image sensor” (SAMSUNG SDI CO., LTD., priority 2021, dated 2026):
# Assay: Measurement of solubility in dilution solvent (PGMEA)
# Type: physicochemical
# Conditions: 0.5 g compound in PGMEA, stirred at 25° C. for 1 hour
# Method: 0.5 g of each compound Synthesis Examples 1 to 5 and Comparative Synthesis Examples 1 to 5 was added to a dilution solvent (PGMEA), and each corresponding solution was stirred with Mix-Rotar VMR-5 (Luchi Seieido Co., Ltd.) at 25° C. for 1 hour and then, evaluated with respect to solubility, and the results are shown in Table 2.
# Solubility Evaluation Criteria
# • 10 wt % or more of the compound (solute) was dissolved in the total amount of the diluent: ∘ • Less than 10 wt % of the compound (solute) was dissolved in the total amount of diluent: X
row,SMILES,Solubility
1,"Cc1cccc(C)c1N(CCCN1C(=O)c2ccccc2C1=O)C1=CC2Oc3cc(N(C)CCN(C)c4ccc5c(-c6ccccc6S(=O)(=O)[O-])c6ccc(N(CCCN7C(=O)c8ccccc8C7=O)c7c(C)cccc7C)cc6[o+]c5c4)ccc3C(c3ccccc3S(=O)(=O)O)=C2C=C1 (centres unmarked) [Comparative Synthesis Example 3, reference compound]",X (Less than 10 wt % of the compound (solute) was dissolved in the total amount of diluent)
2,"Cc1cccc(C)c1N(CCCN1C(=O)c2ccccc2C1=O)C1=CC2Oc3cc(N(C)CCCCCCCCCCCN(C)c4ccc5c(-c6ccccc6S(=O)(=O)[O-])c6ccc(N(CCCN7C(=O)c8ccccc8C7=O)c7c(C)cccc7C)cc6[o+]c5c4)ccc3C(c3ccccc3S(=O)(=O)O)=C2C=C1 (centres unmarked) [Comparative Synthesis Example 4, reference compound]",X (Less than 10 wt % of the compound (solute) was dissolved in the total amount of diluent)
3,"CCN(CCCCCCN(CC)c1ccc2c(-c3ccccc3S(=O)(=O)[O-])c3ccc(N(CN4C(=O)c5ccccc5C4=O)c4c(C)cccc4C)cc3[o+]c2c1)c1ccc2c(c1)OC1C=C(N(CN3C(=O)c4ccccc4C3=O)c3c(C)cccc3C)C=CC1=C2c1ccccc1S(=O)(=O)O (centres unmarked) [Comparative Synthesis Example 5, reference compound]",X (Less than 10 wt % of the compound (solute) was dissolved in the total amount of diluent)
4,CCN(CCCCCCN(CC)c1ccc2c(-c3ccccc3S(=O)(=O)[O-])c3ccc(N(CCCN4C(=O)c5ccccc5C4=O)c4c(C)cccc4C)cc3[o+]c2c1)c1ccc2c(c1)OC1C=C(N(CCCN3C(=O)c4ccccc4C3=O)c3c(C)cccc3C)C=CC1=C2c1ccccc1S(=O)(=O)O (centres unmarked) [Synthesis Example 1],◯
5,CCN(CCCCCCN(CC)c1ccc2c(-c3ccccc3S(=O)(=O)[O-])c3ccc(N(CCCCN4C(=O)c5ccccc5C4=O)c4c(C)cccc4C)cc3[o+]c2c1)c1ccc2c(c1)OC1C=C(N(CCCCN3C(=O)c4ccccc4C3=O)c3c(C)cccc3C)C=CC1=C2c1ccccc1S(=O)(=O)O (centres unmarked) [Synthesis Example 2],◯
6,CCN(CCCCCCN(CC)c1ccc2c(-c3ccccc3S(=O)(=O)[O-])c3ccc(N(CCN4C(=O)c5ccccc5C4=O)c4c(C)cccc4C)cc3[o+]c2c1)c1ccc2c(c1)OC1C=C(N(CCN3C(=O)c4ccccc4C3=O)c3c(C)cccc3C)C=CC1=C2c1ccccc1S(=O)(=O)O (centres unmarked) [Synthesis Example 3],◯
7,CCN(CCCCCCN(CC)c1ccc2c(-c3ccccc3S(=O)(=O)[O-])c3ccc(N(CCCN4C(=O)c5ccccc5C4=O)c4ccccc4C)cc3[o+]c2c1)c1ccc2c(c1)OC1C=C(N(CCCN3C(=O)c4ccccc4C3=O)c3ccccc3C)C=CC1=C2c1ccccc1S(=O)(=O)O (centres unmarked) [Synthesis Example 4],◯
8,Cc1cccc(C)c1N(CCCN1C(=O)c2ccccc2C1=O)C1=CC2Oc3cc(N(C)CCCN(C)c4ccc5c(-c6ccccc6S(=O)(=O)[O-])c6ccc(N(CCCN7C(=O)c8ccccc8C7=O)c7c(C)cccc7C)cc6[o+]c5c4)ccc3C(c3ccccc3S(=O)(=O)O)=C2C=C1 (centres unmarked) [Synthesis Example 5],◯
